Consider one compound from patent US20210238138A1, “Method for improving nucleation of crystals from solution” (Université Libre de Bruxelles, priority 2018, published 2021).

The nature of series [1]: Solubility of Brivaracetam in IPAc. To be noted: IPAc (isopropyl acetate), organic solvent or mixture.
The nature of series [2]: Antisolvent (hexane) crystallisation of Brivaracetam/IPAc in capillary tubing. To be noted: for Crystals Mean maximum length: inner diameter 500 μm, flows 20 and 20 mL · min^−1. It is filed as physicochemical. As for the experimental part:
The length of the capillary tube has also been varied. In the following tests, antisolvent hexane at 4° C. was added to a solution of Brivaracetam/IPAc. It became clear that for these cases different lengths of tubing are to be investigated, as too long tube results into blockage of the tubes due to too high solid content in suspension in the solution, as reported in table 6. In all cases, the preferred rods form was observed.

In brackets after ≈: the same amount, converted by molar mass.

Take `CCC[C@@H]1CC(=O)N([C@@H](CC)C(N)=O)C1` [Brivaracetam]: the solubility in series [1] (20 °C) is 136 mg/mL (≈ 641 mM); in series [1] (45 °C), ~1100 mg/mL (≈ 5180 mM). The Crystal form observed result in series [2] (all antisolvent (hexane) tests of tables 5 and 6) was “rods”. In addition, the “Crystals Mean maximum length” value is listed as 6 ± 2 μm in series [2] (test 22: 150 mg · mL^−1 in IPAc, σ 8.4, hexane antisolvent, tubular length 18 cm); 9 ± 5 μm in series [2] (test 23: 150 mg · mL^−1 in IPAc, σ 8.4, hexane antisolvent, tubular length 33 cm); 10 ± 5 μm in series [2] (test 24: 150 mg · mL^−1 in IPAc, σ 8.4, hexane antisolvent, tubular length 50 cm); 9 ± 4 μm in series [2] (test 25: 150 mg · mL^−1 in IPAc, σ 8.4, hexane antisolvent, tubular length 50 cm); “Blocked tube” in series [2] (test 26: 150 mg · mL^−1 in IPAc, σ 8.4, hexane antisolvent, tubular length 100 cm); 12 ± 6 μm in series [2] (test 27: 200 mg · mL^−1 in IPAc, σ 11.5, hexane antisolvent, tubular length 18 cm). Moreover, the “Crystals Mean maximum length” value in series [2] (test 28: 200 mg · mL^−1 in IPAc, σ 11.5, hexane antisolvent, tubular length 33 cm) is listed as 7 ± 3 μm; in series [2] (test 29: 200 mg · mL^−1 in IPAc, σ 11.5, hexane antisolvent, tubular length 50 cm), 9 ± 5 μm; in series [2] (test 30: 200 mg · mL^−1 in IPAc, σ 11.5, hexane antisolvent, tubular length 50 cm), 7 ± 3 μm; in series [2] (test 31: 200 mg · mL^−1 in IPAc, σ 11.5, hexane antisolvent, tubular length 100 cm), “Blocked tube”; in series [2] (test 32: 300 mg · mL^−1 in IPAc, σ 17.8, hexane antisolvent, tubular length 50 cm), 8 ± 3 μm; in series [2] (test 33: 300 mg · mL^−1 in IPAc, σ 17.8, hexane antisolvent, tubular length 100 cm), “Blocked tube”.

The term solubility denotes how much of the substance goes into solution per volume.
